Experimental data: the supplement of paper PMC11451515

System: SEM cells
Assay: cell viability relative to DMSO control; higher = less cytotoxic
Conditions: 48 h
Procedure, shortened: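 Viability is expressed as a percentage of DMSO wells within each plate, and cell-free wells serve as background. Seeding densities in the 1536-well plates (5 μl) were 500 cells/well for NOMO1 or SEM leukemia cells and 1000 cells/well for P12-Ichikawa. Each line was adapted for at least four passages in each medium. Library compounds in DMSO were pin-dosed at 47 μM to 0.79 nM (11 points, threefold), and CellTiter-Glo One luminescence was read after 48 h at 37°C.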

[1] = HPLM + 10% dialyzed FBS, 0.000781 µM
[2] = HPLM + 10% dialyzed FBS, 0.00234 µM
[3] = HPLM + 10% dialyzed FBS, 0.00702 µM
[4] = HPLM + 10% dialyzed FBS, 0.0211 µM
[5] = HPLM + 10% dialyzed FBS, 0.0632 µM
[6] = HPLM + 10% dialyzed FBS, 0.19 µM
[7] = HPLM + 10% dialyzed FBS, 0.569 µM
[8] = HPLM + 10% dialyzed FBS, 1.71 µM
[9] = HPLM + 10% dialyzed FBS, 5.12 µM
[10] = HPLM + 10% dialyzed FBS, 15.4 µM
[11] = HPLM + 10% dialyzed FBS, 46.1 µM
[12] = RPMI 5 mM glucose + 10% FBS, 0.000781 µM
[13] = RPMI 5 mM glucose + 10% FBS, 0.00234 µM
[14] = RPMI 5 mM glucose + 10% FBS, 0.00702 µM
[15] = RPMI 5 mM glucose + 10% FBS, 0.0211 µM
[16] = RPMI 5 mM glucose + 10% FBS, 0.0632 µM
[17] = RPMI 5 mM glucose + 10% FBS, 0.19 µM
[18] = RPMI 5 mM glucose + 10% FBS, 0.569 µM
[19] = RPMI 5 mM glucose + 10% FBS, 1.71 µM
[20] = RPMI 5 mM glucose + 10% FBS, 5.12 µM
[21] = RPMI 5 mM glucose + 10% FBS, 15.4 µM
[22] = RPMI 5 mM glucose + 10% FBS, 46.1 µM
[23] = RPMI 5 mM glucose + 10% dialyzed FBS, 0.000781 µM
[24] = RPMI 5 mM glucose + 10% dialyzed FBS, 0.00234 µM
[25] = RPMI 5 mM glucose + 10% dialyzed FBS, 0.00702 µM
[26] = RPMI 5 mM glucose + 10% dialyzed FBS, 0.0211 µM
[27] = RPMI 5 mM glucose + 10% dialyzed FBS, 0.0632 µM
[28] = RPMI 5 mM glucose + 10% dialyzed FBS, 0.19 µM
[29] = RPMI 5 mM glucose + 10% dialyzed FBS, 0.569 µM
[30] = RPMI 5 mM glucose + 10% dialyzed FBS, 1.71 µM
[31] = RPMI 5 mM glucose + 10% dialyzed FBS, 5.12 µM
[32] = RPMI 5 mM glucose + 10% dialyzed FBS, 15.4 µM
[33] = RPMI 5 mM glucose + 10% dialyzed FBS, 46.1 µM

SMILES | cell viability [1] [%] | cell viability [2] [%] | cell viability [3] [%] | cell viability [4] [%] | cell viability [5] [%] | cell viability [6] [%] | cell viability [7] [%] | cell viability [8] [%] | cell viability [9] [%] | cell viability [10] [%] | cell viability [11] [%] | cell viability [12] [%] | cell viability [13] [%] | cell viability [14] [%] | cell viability [15] [%] | cell viability [16] [%] | cell viability [17] [%] | cell viability [18] [%] | cell viability [19] [%] | cell viability [20] [%] | cell viability [21] [%] | cell viability [22] [%] | cell viability [23] [%] | cell viability [24] [%] | cell viability [25] [%] | cell viability [26] [%] | cell viability [27] [%] | cell viability [28] [%] | cell viability [29] [%] | cell viability [30] [%] | cell viability [31] [%] | cell viability [32] [%] | cell viability [33] [%]
COC1=CC=C(C=C1O)C/2=C/C(=O)C3=C(O2)C=C(O[C@@H]4O[C@H](CO[C@@H]5O[C@@H](C)[C@H](O)[C@@H](O)[C@H]5O)[C@@H](O)[C@H](O)[C@H]4O)C=C3O | 95.1 | 103 | 106 | 114 | 124 | 108 | 122 | 118 | 102 | 129 | 113 | 115 | 108 | 107 | 111 | 122 | 113 | 100 | 106 | 85.9 | 105 | 103 | 102 | 103 | 111 | 102 | 123 | 111 | 112 | 114 | 93.8 | 101 | 99.2
N#C/N=C(\NCCCCCCOc1ccc(Cl)cc1)Nc1ccncc1 | 18.5 | 14.6 | 11.7 | 11.6 | 10.7 | 9.6 | 9.68 | 8.04 | 7.4 | 6.52 | 4.48 | 11 | 12.1 | 9.46 | 9.27 | 8.63 | 8.09 | 6.61 | 4.33 | 4.15 | 3.83 | 1.91 | 15 | 11 | 9.5 | 8.99 | 8.27 | 8.14 | 7.35 | 6.51 | 5.93 | 4.36 | 2.76
C[C@](N)(Cc1ccc(O)c(O)c1)C(=O)O | 83.9 | 85.7 | 94.4 | 86.3 | 102 | 92.5 | 84.1 | 81.7 | 83 | 74.8 | 6.26 | 94.7 | 106 | 100 | 111 | 103 | 81.6 | 69.2 | 93.5 | 86.2 | 72.9 | 3.7 | 103 | 93.7 | 95.9 | 111 | 97.8 | 91.1 | 98.5 | 96.1 | 88.2 | 77.4 | 4.47
CCOC(=O)\C1=C\[C@@H](OC(CC)CC)[C@H](NC(C)=O)[C@@H](N)C1 | 73.2 | 82.3 | 95.9 | 97.5 | 77.9 | 102 | 91.4 | 70.8 | 101 | 96.8 | 56 | 77.6 | 85.1 | 93.3 | 99.1 | 85 | 92.7 | 96.8 | 78.8 | 88.8 | 111 | 89.3 | 75.6 | 82.7 | 92.3 | 84.9 | 75.5 | 98.2 | 102 | 73.7 | 97.7 | 104 | 68.3
C[S+](=O)([O-])c1ccc(Oc2cc(F)cc(C#N)c2)c2c1[C@H](O)C(F)(F)C2 | 73.5 | 97.9 | 101 | 101 | 108 | 105 | 103 | 106 | 111 | 106 | 87.7 | 93.8 | 117 | 152 | 140 | 138 | 155 | 144 | 156 | 141 | 158 | 124 | 76.9 | 112 | 121 | 105 | 124 | 121 | 106 | 128 | 106 | 120 | 84.9
CC(C)(C)[C@H](NC(=O)c1ccc(N)c(Cl)c1)C(=O)N1CCC[C@H]1C(=O)N[C@H](C#N)CC(=O)O | 99.5 | 105 | 109 | 129 | 127 | 125 | 113 | 113 | 123 | 140 | 130 | 107 | 107 | 129 | 118 | 118 | 124 | 115 | 120 | 100 | 134 | 110 | 116 | 101 | 117 | 111 | 117 | 116 | 117 | 118 | 117 | 123 | 125
NC(=O)Nc1cc(-c2cccc(F)c2)sc1C(=O)N[C@H]1CCCNC1 | 88.8 | 62 | 66.4 | 46.3 | 38.2 | 28.6 | 27.5 | 27.1 | 23.3 | 19 | 20.3 | 110 | 84.4 | 71.6 | 45.2 | 45 | 37.6 | 32.7 | 27.7 | 20.4 | 11.3 | 13.7 | 98.9 | 69.4 | 52.4 | 44.5 | 32.2 | 26.3 | 25.5 | 21.3 | 16.7 | 12.4 | 10.6
C=CCc1ccc(O)c(-c2ccc(O)c(CC=C)c2)c1 | 103 | 107 | 109 | 95.3 | 120 | 112 | 105 | 56.1 | 40.6 | 40.4 | 37.6 | 78.6 | 88.8 | 93.2 | 85.1 | 93.6 | 108 | 79.1 | 20 | 14.7 | 21.4 | 17.6 | 98.8 | 101 | 109 | 89.6 | 109 | 107 | 94 | 27.2 | 20.6 | 21.4 | 24.6
Cn1cc(C[C@@H](N)C(=O)O)c2ccccc21 | 92 | 105 | 95.8 | 113 | 112 | 121 | 112 | 111 | 101 | 92.3 | 76.7 | 80 | 50.1 | 79.6 | 94 | 89.8 | 96.4 | 91.1 | 97.9 | 107 | 80.9 | 62.7 | 114 | 92.1 | 102 | 106 | 97.7 | 108 | 98.8 | 97 | 102 | 96.3 | 70
NC(=O)c1ncn([C@@H]2O[C@H](CO)[C@@H](O)[C@H]2O)c1O | 128 | 118 | 82.8 | 120 | 117 | 117 | 115 | 130 | 118 | 123 | 104 | 112 | 127 | 89.1 | 137 | 131 | 131 | 115 | 118 | 121 | 117 | 114 | 98.7 | 104 | 85.8 | 128 | 121 | 104 | 112 | 115 | 113 | 116 | 113
Cc1c(C)c2c(c(C)c1O)CCC(C)(COc1ccc(CC3SC(=O)NC3=O)cc1)O2 (stereo unspecified) | 119 | 113 | 127 | 117 | 124 | 117 | 128 | 132 | 141 | 112 | 93.1 | – | – | – | – | – | – | – | – | – | – | – | 104 | 101 | 127 | 106 | 126 | 121 | 136 | 134 | 154 | 95.4 | 84.9
O=C(Nc1cccnn1)N1CCC(=Cc2cccc(Oc3ccc(C(F)(F)F)cn3)c2)CC1 | 81.8 | 86.8 | 84.4 | 21.1 | 94.9 | 98 | 92.5 | 85 | 90 | 81.3 | 75.6 | 104 | 115 | 112 | 17.1 | 119 | 127 | 121 | 139 | 118 | 103 | 87.8 | 92.8 | 92.6 | 89.8 | 17 | 113 | 112 | 106 | 98.4 | 93.7 | 78.3 | 55.8
CCOC1=CC=CC=C1N\2C(=O)C3=C(C=CC=C3)\N=C2C(C)N4CCN(CC4)C(=O)COC5=CC=C(Cl)C=C5 (stereo unspecified) | 112 | 111 | 111 | 123 | 114 | 115 | 104 | 26.1 | 9.76 | 5.2 | 3.06 | 124 | 115 | 108 | 101 | 110 | 114 | 28 | 6.16 | 4.12 | 3.03 | 1.64 | 113 | 131 | 119 | 116 | 125 | 136 | 68.6 | 9.93 | 6.21 | 4.51 | 2.93
NC(=O)NO | 83 | 79.5 | 89.4 | 85.6 | 93.5 | 96.1 | 80.1 | 75.2 | 31.6 | 13.8 | 2.15 | 99.3 | 89.3 | 96.1 | 94.8 | 100 | 93 | 103 | 86.1 | 37.2 | 7.56 | 1.61 | 77.9 | 79.6 | 93 | 88.4 | 96.2 | 84.4 | 95.5 | 87 | 32.3 | 5.86 | 1.96
Cc1noc(-c2ccc(CSCCC(=O)O)cc2)c1NC(=O)OC(C)c1ccccc1Cl (stereo unspecified) | 95.3 | 95.1 | 99.2 | 89.3 | 88.4 | 97 | 99.7 | 89.3 | 97.1 | 98.7 | 95.6 | 99.9 | 98.8 | 82.5 | 94.5 | 83.9 | 100 | 96.2 | 70.3 | 101 | 89.7 | 81.3 | 90 | 108 | 104 | 115 | 97 | 115 | 101 | 69.3 | 117 | 114 | 88.3
C[C@]12CCC\3=C\4CCC(=O)\C=C4CC[C@H]3[C@@H]1CC[C@@]2(O)CC#N | 97.2 | 103 | 123 | 97 | 124 | 118 | 121 | 144 | 137 | 132 | 115 | 117 | 124 | 116 | 88.3 | 143 | 116 | 138 | 130 | 146 | 139 | 128 | – | – | – | – | – | – | – | – | – | – | –
